The values below come from patent EP4703359A1 (Shanghai Simr Biotechnology Co., Ltd., priority 2023, dated 2024).

As usually defined, the Ki is the equilibrium dissociation constant of an inhibitor or competing ligand from its target.

Counter-ions that a name gives are not always drawn. Like-named read-outs stand apart in the source and are kept apart here.

The target in test [1] is T1, α2-GABAA receptor (Homo sapiens, UniProt P18507+P47869).
T1 construct: expressed in transfected cells
Description: Whole-cell patch-clamp electrophysiology, positive allosteric modulatory activity in α2-GABAAR-HEK293 cells. The format is cell-based. Conditions: for Emax at 0.1 µM: read-out: α2-GABAAR Positive allosteric modulatory activity. The gist of the method:
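HEK293 cells stably co-expressing α2β3γ2 GABAA receptor, whole-cell patch clamp at -60 mV. Compounds at 100 nM final applied with GABA 0.10–0.11 µM (~EC7-8) after GABA-only current stabilized. […]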
(In general: The patch-clamp technique gives a direct electrical read-out from membranes.)

For test [2], the target named is T1, α2-GABAA receptor. Description: Radioactive ligand (3H-flunitrazepam) competitive binding assay, BZD site of membrane proteins of α2-GABAAR-HEK293 cells. Conditions: competition with 1 nM 3H-flunitrazepam; HEK293 membranes expressing α2, β3, γ2 subunits; Ki calculated from IC50; read-out: α2 Ki. From the text:
The α subunit, β subunit, and γ subunit are indispensable for forming a fully functional GABAA receptor. In this example, HEK293 cells stably expressing α2-GABAA receptors (α2-GABAAR) were constructed and screened respectively via liposome transfection (Felgner, P.L., et al. Proceedings of the National Academy of Sciences, 1987, 84: 7413-7417). The α2-GABAAR-HEK293 cell model co-expresses the α2 subunit (protein sequence referenced under GenBank accession number: NM_000807.4), β3 subunit (protein sequence referenced under GenBank accession number: NM_000814.5), and γ2 subunit (protein sequence referenced under GenBank accession number: NM_000816.3).
The above cell lines were subcultured. α2-GABAAR-HEK293 cells were amplified for testing the affinity of compounds to the benzodiazepine (BZD) site of GABAA receptors. Some of the α2-GABAAR-HEK293 cells in suspension during subculturing were plated on glass slides pre-treated with Poly-D-Lysine for electrophysiological testing (method reference: Patent CN 107344936 A, paragraph 0586).
The affinity of the compound for the α2-GABAA receptor was determined by competing with ^3H-flunitrazepam (isotope ^3H-labeled flunitrazepam) for binding to the BZD site of membrane proteins in HEK293 cells stably expressing human α2-GABAAR.
Membrane preparation: Cells were suspended in 50 mM Tris-HCl buffer (pH=7.4), homogenized on ice using a homogenizer for 20 seconds with 10 repetitions, and centrifuged at 4°C, 1000g for 10 minutes. The supernatant was collected, and the above steps were repeated. The supernatant was centrifuged at 4°C (33,800 × g; Thermo, rotor: A27-8x50) for 60 minutes, and the pellet was resuspended in Tris buffer (50 mM Tris-HCl, 10 mM MgCl2, 0.5 mM EDTA, 10% glycerol). The protein concentration was determined using the bicinchoninic acid (BCA) protein assay based on the copper ion reduction method (BCA kit purchased from Pierce (Annoron)). Aliquots of 1 mL were prepared and stored at -80°C.
Radioactive ligand competitive binding assay: This assay was conducted in a 200 µL system (96-well plate), containing 100 µL of cell membrane. The concentration of ^3H-flunitrazepam was 1 nM, and the concentration of the test compound ranged from […]. Flumazenil was used as a control. The low signal control well (Low Control, LC) was added with 1 µL of 2 mM flumazenil (final concentration 10 µM), while the high signal control well (High Control, HC) was added with 1 µL of dimethyl sulfoxide. The final concentration of the target membrane protein was 5 µg/well. All test compound stock solutions were prepared as 10 mM solutions in dimethyl sulfoxide. The working concentration of the samples was prepared by diluting all samples to 0.2 mM with dimethyl sulfoxide, followed by a 4-fold serial dilution to obtain a total of 8 concentration gradients. The 96-well plate was sealed with sealing film and then incubated on a shaker at room temperature for 1 hour. The GF/C filter plate was also soaked with a soaking buffer (0.3% PEI (polyethyleneimine, purchased from: Sigma-Aldrich, model: P314), stored at 4°C) for at least 0.5 hours. After the incubation was completed, the mixture was collected onto a GF/C filter plate using a cell harvester and washed four times with wash buffer (50 mM Tris-HCl, pH 7.4, stored at 4°C). After drying in a 50°C oven for 1 hour, the dried GF/C filter plate was sealed at the bottom with a film. The residual radioactivity on the filter membrane was detected using liquid scintillation counting. Each well was filled with 50 µL of scintillation fluid and sealed. Readings were taken using a Microbeta^2 (microplate counter, purchased from PerkinElmer, model: CNLL0153). The inhibitory activity of the test sample on the binding of ^3H-flunitrazepam to GABAA receptor membrane protein was calculated. […]

Setting [3] is: compound 100 nM, GABA 0.10 to 0.11 µM (approximately EC7-8), normalized to reference compound CVL-865 (= 100%).

Take `CCCNC(=O)c1nc2c(-c3c(F)cccc3OC)cccn2c1N` [Example 3, 3-Amino-8-(2-fluoro-6-methoxyphenyl)-N-propylimidazo[1,2-a]pyridine-2-carboxamide]: the Emax at 0.1 µM at α2-GABAA receptor [1] (setting [3]) was 105%. The Ki on α2-GABAA receptor [2] was 0.024 µM. In the case of `COc1cccc(F)c1-c1cccn2c(N)c(C(=O)NC3CC3)nc12` [Example 5, 3-Amino-8-(2-fluoro-6-methoxyphenyl)-N-cyclopropylimidazo[1,2-a]pyridine-2-carboxamide], the Emax at 0.1 µM at α2-GABAA receptor [1] (setting [3]) worked out at 65%. Also, at α2-GABAA receptor [2], the Ki was 0.039 µM. For `COc1cccc(F)c1-c1cccn2c(N)c(C(=O)NCC3CC3)nc12` [Example 6, 3-Amino-N-(cyclopropylmethyl)-8-(2-fluoro-6-methoxyphenyl)imidazo[1,2-a]pyridine-2-carboxamide] the same measures were 57% and 0.024 µM. With `COc1cccc(F)c1-c1cccn2c(N)c(C(=O)NC3CCC3)nc12` [Example 7, 3-Amino-8-(2-fluoro-6-methoxyphenyl)-N-cyclobutylimidazo[1,2-a]pyridine-2-carboxamide], the Emax at 0.1 µM at α2-GABAA receptor [1] (setting [3]) is 52%. Also, on α2-GABAA receptor [2], the Ki is 0.0149 µM. As for `COc1cccc(F)c1-c1cccn2c(N)c(C(=O)NC3CC(C)C3)nc12` (stereo not shown) [Example 8, 3-Amino-8-(2-fluoro-6-methoxyphenyl)-N-(3-methylcyclobutyl)imidazo[1,2-a]pyridine-2-carboxamide], the Emax at 0.1 µM on α2-GABAA receptor [1] (setting [3]) stood at 66%. Further, the Ki on α2-GABAA receptor [2] is 0.0119 µM. The like results for `COc1cccc(F)c1-c1cccn2c(N)c(C(=O)NC3CC(F)(F)C3)nc12` [Example 9, 3-Amino-N-(3,3-difluorocyclobutyl)-8-(2-fluoro-6-methoxyphenyl)imidazo[1,2-a]pyridine-2-carboxamide] were, in that order, 52% and 0.093 µM.

Take `COc1cccc(F)c1-c1cccn2c(N)c(C(=O)NC3CCCC3)nc12` [Example 12, 3-Amino-N-cyclopentyl-8-(2-fluoro-6-methoxyphenyl)imidazo[1,2-a]pyridine-2-carboxamide]: on α2-GABAA receptor [1] (setting [3]), the Emax at 0.1 µM stood at 32%. Moreover, the Ki at α2-GABAA receptor [2] is 0.0341 µM. For `COc1cccc(F)c1-c1cccn2c(N)c(C(=O)Nc3ccccc3)nc12` [Example 13, 3-Amino-8-(2-fluoro-6-methoxyphenyl)-N-phenylimidazo[1,2-a]pyridine-2-carboxamide] the same measures were 107% and 0.044 µM.

In the case of `COc1cccc(F)c1-c1cccn2c(N)c(C(=O)Nc3cc(C)on3)nc12` [Example 16, 3-Amino-8-(2-fluoro-6-methoxyphenyl)-N-(5-methylisoxazol-3-yl)imidazo[1,2-a]pyridine-2-carboxamide], at α2-GABAA receptor [1] (setting [3]), the Emax at 0.1 µM amounted to 200%. The Ki on α2-GABAA receptor [2] was 0.0193 µM. The like results for `COc1cccc(F)c1-c1cccn2c(N)c(C(=O)NCc3ccccc3)nc12` [Example 19, 3-Amino-N-benzyl-8-(2-fluoro-6-methoxyphenyl)imidazo[1,2-a]pyridine-2-carboxamide] were, in that order, 65% and 0.0139 µM.

As for `COc1cccc(F)c1-c1cccn2c(N)c(C(=O)NCCC(F)(F)F)nc12` [Example 25, 3-Amino-8-(2-fluoro-6-methoxyphenyl)-N-(3,3,3-trifluoropropyl)imidazo[1,2-a]pyridine-2-carboxamide], the Emax at 0.1 µM on α2-GABAA receptor [1] (setting [3]) worked out at 91%. Further, the Ki at α2-GABAA receptor [2] was 0.0288 µM. The like results for `CCCCNC(=O)c1nc2c(-c3c(F)cccc3OC)cccn2c1N` [Example 26, 3-Amino-8-(2-fluoro-6-methoxyphenyl)-N-butylimidazo[1,2-a]pyridine-2-carboxamide] were, in that order, 97% and 0.0178 µM.

Take `COc1cccc(F)c1-c1cccn2c(N)c(C(=O)NCCCF)nc12` [Example 27, 3-Amino-8-(2-fluoro-6-methoxyphenyl)-N-(3-fluoropropyl)imidazo[1,2-a]pyridine-2-carboxamide]: the Emax at 0.1 µM on α2-GABAA receptor [1] (setting [3]) stood at 84%. For the same molecule, the Ki on α2-GABAA receptor [2] was 0.032 µM. The like results for `COc1ccc(F)c(F)c1-c1cccn2c(N)c(C(=O)NC3CC(C)C3)nc12` (stereo not shown) [Example 32, 3-Amino-8-(2,3-difluoro-6-methoxyphenyl)-N-(3-methylcyclobutyl)imidazo[1,2-a]pyridine-2-carboxamide] were, in that order, 50% and 0.00733 µM. The like results for `COc1ccc(C)cc1-c1cccn2c(N)c(C(=O)NC3CC(C)C3)nc12` (stereo not shown) [Example 33, 3-Amino-8-(2-methoxy-5-methylphenyl)-N-(3-methylcyclobutyl)imidazo[1,2-a]pyridine-2-carboxamide] were, in that order, 155% and 0.0155 µM. For `COc1ccc(C#N)cc1-c1cccn2c(N)c(C(=O)NC3CC(C)C3)nc12` (stereo not shown) [Example 34, 3-Amino-8-(5-cyano-2-methoxyphenyl)-N-(3-methylcyclobutyl)imidazo[1,2-a]pyridine-2-carboxamide] the same measures were 101% and 0.00507 µM. For the molecule `CCCNC(=O)c1nc2c(-c3cccc(C(F)(F)F)c3)cccn2c1N` [Example 47, 3-Amino-N-propyl-8-(3-(trifluoromethyl)phenyl)imidazo[1,2-a]pyridine-2-carboxamide], the Ki at α2-GABAA receptor [2] was 0.0352 µM. On the same count and under the same terms, the value for `CCCNC(=O)c1nc2c(-c3cccc(Cl)c3F)cccn2c1N` [Example 66, 3-Amino-8-(3-chloro-2-fluorophenyl)-N-propylimidazo[1,2-a]pyridine-2-carboxamide] was 0.00244 µM. With `CCCNC(=O)c1nc2c(-c3cccnc3C)cccn2c1N` [Example 142, 3-Amino-8-(2-methylpyridin-3-yl)-N-propylimidazo[1,2-a]pyridine-2-carboxamide], on α2-GABAA receptor [1] (setting [3]), the Emax at 0.1 µM is 45%. For the molecule `CCCNC(=O)c1nc2c(CC(C)C)cccn2c1N` [Example 143, 3-Amino-8-isobutyl-N-propylimidazo[1,2-a]pyridine-2-carboxamide hydrochloride], the Emax at 0.1 µM on α2-GABAA receptor [1] worked out at 48%. With `[2H]c1ccn2c(N)c(C(=O)NCCC)nc2c1-c1c(F)cccc1OC` [Example 150, 3-Amino-8-(2-fluoro-6-methoxyphenyl)-N-propylimidazo[1,2-a]pyridine-7-deuterio-2-carboxamide], the Emax at 0.1 µM at α2-GABAA receptor [1] (setting [3]) worked out at 85%. With `[2H]c1cc(-c2c(F)cccc2OC)c2nc(C(=O)NCCC)c(N)n2c1` [Example 154, 3-Amino-8-(2-fluoro-6-methoxyphenyl)-N-propylimidazo[1,2-a]pyridine-6-deuterio-2-carboxamide], the “α2-GABAAR Positive allosteric modulatory activity” value on α2-GABAA receptor [1] (setting [3]) was 84%. As to `CCCNC(=O)c1nc2c(-c3c(F)cccc3OC)cc(F)cn2c1N` [Example 155, 3-Amino-6-fluoro-8-(2-fluoro-6-methoxyphenyl)-N-propylimidazo[1,2-a]pyridine-2-carboxamide], the Emax at 0.1 µM at α2-GABAA receptor [1] (setting [3]) is 56%. For the molecule `[2H]c1ccc(-c2c(F)cccc2OC)c2nc(C(=O)NCCC)c(N)n12` [Example 156, 3-amino-8-(2-fluoro-6-methoxyphenyl)-N-propylimidazo[1,2-a]pyridine-5-deuterium-2-carboxamide], the “α2-GABAAR Positive allosteric modulatory activity” value at α2-GABAA receptor [1] (setting [3]) is 100%.
